Measured values: US20250084095A1, “Aminopyrimidine Derivatives as Cyclin-Dependent Kinase Inhibitors” (Accutar Biotechnology Inc., priority 2023, published 2025)

Assays:
[1] = tested on: Phospho-Rb (Ser807/811) in MCF7 cells; assay: Phospho-Rb expression inhibition in MCF7 cells quantified by in cell Western; type: cell-based, human; conditions: Homo sapiens, MCF7, 24 h, 24 hours, in cell Western, read-out: MCF7 pRb IC50
Description: MCF7 cells were obtained from American Type Culture Collection (ATCC, HTB-22). MCF7 cells were plated in 96-well plates (VWR #10062-900, or Coming #3904) in 90 μL culture medium at a density of 20,000 cells/well in the DMEM growth medium containing 10%/FBS and 1% Penicillin Streptomycin, and then incubated at 37° C. overnight. The following day, the test compound was administered to the cells by using 1000× compound stock solution prepared in DMSO at various concentrations. 1000× compound stock solution was first diluted in culturing medium to 10×, then 10 μL compound medium was added to each well in the cell plates. After administration of the compound, the cells were then incubated at 37° C. for 24 h. Upon completion, the cells were washed with PBS briefly. 150 μL/well of 4% formaldehyde was added and the plates were incubated at room temperature for 20 min. The cells were washed with PBS briefly, and permeabilized with 150 µL/well of ice cold 100% methanol for 10 min. The cells were washed with PBS briefly and blocked with 100 µL/well LI-COR blocking buffer for 1 h at room temperature with gentle shaking. The cells were incubated overnight at 4° C. with 50 μL primary antibody rabbit anti-Phospho-Rb (Ser807/811) (1: 500, Cell Signaling, #8516) and anti-Rb (1:200, Santa Cruz, sc-73598) diluted in Intercept Blocking Buffer (LI-COR, #927-60001) containing 0.1% Tween 20. The next day, the cells were washed with 200 μL PBS containing 0.1% Tween 20, 5×5 mins at room temperature with gentle shaking, and incubated with 50 μL secondary antibody, IRDye® 800CW Goat anti-Rabbit IgG (1:1000, LI-COR, #926-32211) and FRDye® 680RD Goat anti-Mouse IgG (1:1000, LI-COR, #926-68070), in LI-COR […] blocking buffer with 0.2% Tween 20 for 1 h at room temperature with gentle shaking. The cells were washed with 200 μL PBS containing 0.1% Tween 20, 5×5 min at room temperature with gentle shaking. The cells were washed with PBS for 5 mins. 100 μL fresh PBS was added to each well and the plates were imaged on a LI-COR Odyssey CLX plate reader.
MCF7 cells were obtained from American Type Culture Collection (ATCC, HTB-22). SW1573-CDK6 KO and SW1573-CDK4 KO cells were generated by the CRISPR-Cas9 technology. All cells were plated in 96-well plates (VWR #10062-900, or Corning #3904) in 90 uL culture medium at a density of 20,000 cells/well in the respective growth medium containing 10% FBS and 1% Penicillin Streptomycin, and then incubated at 37° C. overnight. The following day, the test compound was administered to the cells by using 1000× compound stock solution prepared in DMSO at various concentrations. 1000× compound stock solution was first diluted in culturing medium to 10×, then 10 uL compound medium was added to each well in the cell plates. After administration of the compound, the cells were then incubated at 37° C. for 24 hours. Upon completion, the cells were washed with PBS briefly. 150 uL/well of 4% formaldehyde was added and the plates were incubated at room temperature for 20 mins. The cells were washed with PBS briefly, and permeabilized with 150 uL/well of ice cold 100% methanol for 10 mins. The cells were washed with PBS briefly and blocked with 100 uL/well LI-COR blocking buffer for 1 hr at room temperature with gentle shaking. The cells were incubated overnight at 4° C. with 50 uL primary antibody rabbit anti-Phospho-Rb (Ser807/811) (1: 500, Cell Signaling, #8516) and anti-Rb (1:200, Santa Cruz, sc-73598) diluted in Intercept Blocking Buffer (LI-COR, #927-60001) containing 0.1% Tween 20. The next day, the cells were washed with 200 uL PBS containing 0.1% Tween 20, 5×5 mins at room temperature with gentle shaking, and incubated with 50 uL secondary antibody, IRDye® 800CW Goat anti-Rabbit IgG (1:1000, LI-COR, #926-32211) and IRDye®680RD Goat anti-Mouse IgG (1:1000, LI-COR, #926-68070), in LI-COR blocking buffer with 0.2% Tween 20 for 1 hr at room temperature with gentle shaking. […]

22RV1 cells = assay: Cell growth inhibition of 22RV1 cells (CellTiter-Glo); type: cell-based; conditions: Homo sapiens, 22Rv1, 120 h, 5 days, CellTiter-Glo, read-out: 22RV1 Cell Growh GI50
Description: For cell growth assay, 22RV1 (ATCC, CRL-2505) cells were seeded in 96-well plates at 1000 cells/well in 90 μl of RPMI1640 growth medium containing 20% FBS and 1% Penicillin Streptomycin, and then incubated at 37° C. overnight. The following day, the test compound was administered to the cells by using 1000× compound stock solution prepared in DMSO at various concentrations. 1000× compound stock solution was first diluted in culturing medium to 10×, then 10 uL compound medium was added to each well in the cell plates. After administration of the compound, the cells were then incubated at 37° C. for 5 days. Upon completion, the plates were equilibrated at room temperature for approximately 10 min. 100 μl of CellTiter-Glo® Reagent (Promega) was added to each well. The plates were then incubated at room temperature for 10 min and luminescence was recorded by EnSpire plate reader (PerkinElmer).
22RV1 cells were obtained from American Type Culture Collection (ATCC, CRL-2505). 22RV1 cells were seeded in 96-well plates at 1000 cells/well in 90 μL of RPMI1640 growth medium containing 10% FBS and 1% Penicillin Streptomycin, and then incubated at 37° C. overnight. The following day, the test compound was administered to the cells by using 1000× compound stock solution prepared in DMSO at various concentrations. […], then 10 uL compound medium was added to each well in the cell plates. After administration of the compound, the cells were then incubated at […] for 5 days. Upon completion, the plates were equilibrated at room temperature for approximately 10 minutes. 100 μL of CellTiter-Glo® Reagent (Promega) was added to each well. The plates were then incubated at room temperature for 10 minutes and luminescence was recorded by EnSpire plate reader (PerkinElmer).

Row | Compound | IC50 [1] [nM] | GI50 (22RV1 cells) [nM]
1 | CC(C)n1c(CN2[C@@H](C)COC[C@@H]2C)c(F)c(=O)c2ccc(-c3nc(N[C@@H]4C[C@H]5CO[C@H](O5)[C@H]4O)ncc3F)cc21 [Compound 200, 2-(((3S,5S)-3,5-dimethylmorpholino)methyl)-3-fluoro-7-(5-fluoro-2-(((1S,3R,4S,5R)-4-hydroxy-6,8-dioxabicyclo[3.2.1]octan-3-yl)amino)pyrimidin-4-yl)-1-isopropylquinolin-4(1H)-one] | 40 to 150 | 120 to 450
2 | CC(C)[C@@H]1COC(=O)N1c1nc2c(F)cc(-c3nc(N[C@@H]4C[C@H]5CO[C@H](O5)[C@H]4O)ncc3Cl)cc2n1C(C)C [Compound 263, (R)-3-(6-(5-chloro-2-(((1S,3R,4S,5R)-4-hydroxy-6,8-dioxabicyclo[3.2.1]octan-3-yl)amino)pyrimidin-4-yl)-4-fluoro-1-isopropyl-1H-benzo[d]imidazol-2-yl)-4-isopropyloxazolidin-2-one] | 150 to 1000 | > 3000
3 | Cc1c(CN2CC(O)C2)n(C(C)C)c2cc(-c3nc(N[C@@H]4C[C@H]5CO[C@H](O5)[C@H]4O)ncc3F)ccc2c1=O [Compound 198, 7-(5-fluoro-2-(((1S,3R,4S,5R)-4-hydroxy-6,8-dioxabicyclo[3.2.1]octan-3-yl)amino)pyrimidin-4-yl)-2-((3-hydroxyazetidin-1-yl)methyl)-1-isopropyl-3-methylquinolin-4(1H)-one] | 150 to 1000 | 450 to 3000
4 | CC(C)n1c([C@@H]2COC(=O)N2)nc2c(F)cc(-c3nc(N[C@@H]4C[C@H]5CO[C@H](O5)[C@H]4O)ncc3Cl)cc21 [Compound 184, (R)-4-(6-(5-chloro-2-(((1S,3R,4S,5R)-4-hydroxy-6,8-dioxabicyclo[3.2.1]octan-3-yl)amino)pyrimidin-4-yl)-4-fluoro-1-isopropyl-1H-benzo[d]imidazol-2-yl)oxazolidin-2-one] | 150 to 1000 | 120 to 450
5 | Cc1c(CN2CCC(F)(F)C2)n(C(C)C)c2cc(-c3nc(N[C@@H]4C[C@H]5CO[C@H](O5)[C@H]4O)ncc3F)ccc2c1=O [Compound 208, 2-((3,3-difluoropyrrolidin-1-yl)methyl)-7-(5-fluoro-2-(((1S,3R,4S,5R)-4-hydroxy-6,8-dioxabicyclo[3.2.1]octan-3-yl)amino)pyrimidin-4-yl)-1-isopropyl-3-methylquinolin-4(1H)-one] | ≤ 40 | ≤ 120
6 | [2H][C@H]1[C@@H](Nc2ncc(Cl)c(-c3cc(F)c4nc(C(C)(C)O)n(C(C)C)c4c3)n2)[C@H](O)[C@@H]2OC[C@H]1O2 [Compound 2, (1S,2S,3R,4S,5R)-3-((5-chloro-4-(4-fluoro-2-(2-hydroxypropan-2-yl)-1-isopropyl-1H-benzo[d]imidazol-6-yl)pyrimidin-2-yl)amino)-6,8-dioxabicyclo[3.2.1]octan-2-d-4-ol] | – | ≤ 120
7 | Cc1c(C(C)(C)O)cnc2c(Cl)cc(-c3nc(N[C@@H]4C[C@H]5CO[C@H](O5)[C@H]4O)ncc3F)cc12 [Compound 283, (1S,3R,4S,5R)-3-((4-(8-chloro-3-(2-hydroxypropan-2-yl)-4-methylquinolin-6-yl)-5-fluoropyrimidin-2-yl)amino)-6,8-dioxabicyclo[3.2.1]octan-4-ol] | ≤ 40 | ≤ 120
8 | CC(C)(O)c1cnc2c(F)cc(-c3nc(N[C@@H]4C[C@H]5CO[C@H](O5)[C@H]4O)ncc3Cl)cc2n1 [Compound 264, (1S,3R,4S,5R)-3-((5-chloro-4-(8-fluoro-3-(2-hydroxypropan-2-yl)quinoxalin-6-yl)pyrimidin-2-yl)amino)-6,8-dioxabicyclo[3.2.1]octan-4-ol] | 150 to 1000 | 450 to 3000
9 | Cc1nc2c(F)cc(-c3nc(N[C@@H]4C[C@H]5CO[C@H](O5)[C@H]4O)ncc3Cl)cc2n1[C@@H]1CCC[C@@]1(C)O [Compound 182, (1S,3R,4S,5R)-3-((5-chloro-4-(4-fluoro-1-((1R,2R)-2-hydroxy-2-methylcyclopentyl)-2-methyl-1H-benzo[d]imidazol-6-yl)pyrimidin-2-yl)amino)-6,8-dioxabicyclo[3.2.1]octan-4-ol] | 150 to 1000 | 120 to 450
10 | CN(C)C(=O)c1cc2c(F)cc(-c3nc(N[C@@H]4C[C@H]5CO[C@H](O5)[C@H]4O)ncc3Cl)cc2n1C1CCCC1 [Compound 183, 6-(5-chloro-2-(((1S,3R,4S,5R)-4-hydroxy-6,8-dioxabicyclo[3.2.1]octan-3-yl)amino)pyrimidin-4-yl)-1-cyclopentyl-4-fluoro-N,N-dimethyl-1H-indole-2-carboxamide] | > 1000 | > 3000
11 | CC(C)n1c([C@@H]2CCC(F)(F)C2)nc2c(F)cc(-c3nc(N[C@@H]4C[C@H]5CO[C@H](O5)[C@H]4O)ncc3Cl)cc21 [Compound 5, (1S,3R,4S,5R)-3-((5-chloro-4-(2-((R)-3,3-difluorocyclopentyl)-4-fluoro-1-isopropyl-1H-benzo[d]imidazol-6-yl)pyrimidin-2-yl)amino)-6,8-dioxabicyclo[3.2.1]octan-4-ol] | 150 to 1000 | 120 to 450
12 | CC(C)c1cn(C)c(=O)c2ccc(-c3nc(N[C@@H]4C[C@H]5CO[C@H](O5)[C@H]4O)ncc3Cl)cc12 [Compound 236, 6-(5-chloro-2-(((1S,3R,4S,5R)-4-hydroxy-6,8-dioxabicyclo[3.2.1]octan-3-yl)amino)pyrimidin-4-yl)-4-isopropyl-2-methylisoquinolin-1(2H)-one] | 150 to 1000 | 450 to 3000
13 | CC1=Nc2c(F)cc(-c3nc(N[C@@H]4C[C@H]5CO[C@H](O5)[C@H]4O)ncc3Cl)cc2C12CCCC2 [Compound 32, (1S,3R,4S,5R)-3-((5-chloro-4-(7′-fluoro-2′-methylspiro[cyclopentane-1,3′-indol]-5′-yl)pyrimidin-2-yl)amino)-6,8-dioxabicyclo[3.2.1]octan-4-ol] | ≤ 40 | ≤ 120
